From patent US20220177931A1, “PROCESS AND COMPOSITION FOR CONTROLLING ETHANOL PRODUCTION” (priority 2020, published 2022)

Key:
Clostridium ljungdahlii = assay: Syngas fermentation in stirred tank bioreactor, effect of vitamin feed rates on specific ethanol productivity; format: cell-based; conditions: for effect of increasing feed rate on specific ethanol productivity: Experiment 4, vitamin B5 feed held constant below about 30 ug/g of cells, vitamin B1 and B7 feeds increased
Procedure: A synthesis gas containing CO. CO2 and H2 was continuously introduced into a stirred tank bioreactor containing Clostridium ljungdahlii (Experiments 1-4), along with a liquid medium containing trace metals and salts as described herein. Vitamins were provided using dedicated feed lines. A New Brunswick Bioflow reactor containing the fermentation medium was started with actively growing Clostridium ljungdahlii (Experiments 1-4). The rate of agitation of the reactor was set to 800 rpm at the start of the experiment and this agitation rate was maintained throughout the experiment. Feed gas flow to the reactor was increased based on the H2 and CO uptake of the culture. Temperature in the bioreactor was maintained at about 38° C. throughout the experiment. Samples of gas feed into the bioreactor and off-gas from the bioreactor and fermentation broth in the bioreactor were taken at intervals, for example feed gas, off-gas and fermentation broth were sampled about daily, once two hours and once four hours respectively. Above samples were analyzed for consumption or production of various gas components, broth acetic acid concentration, broth ethanol concentration and the optical density (cell density) of the culture. The unaroused volume of the reactor was maintained between 3000 to 3250 ml throughout the experiment. Further, the gas flow to the reactor was maintained at required gas flow rates by using a mass flow controller. The feed […] composition was 23% H2, 35% CO, 29% CO2 and 13% N2. In the following reactor runs, vitamins biotin, thiamine and pantothenate were feed to the reactor using a dedicated stream. Steady state conditions were maintained for a period of time greater than 5 times the cell retention time. Cell mass was essentially replaced 5 times before data collection phase started. After data set was collected, vitamin feed rate was adjusted, adjustment phase was repeated, and next data set was collected. Adjustment phase refers to an amount of time necessary for the culture to equilibrate to a change. In this experiment culture was allowed at least a 3-day adjustment phase. A cell recycle system (CRS) was attached to the reactor before the start of the experiment. During the experiment, medium feed rate was 3.0 to 6.0 ml/min, and through the CRS, 0-5 ml/min permeate was drawn out from the reactor. The following tables describe the vitamin feed rates and specific ethanol productivity (SEP).

[1] = tested on: Clostridium autoethanogenum; assay: Fermentation trials, effect of vitamin feed rates and low cell retention time on specific ethanol productivity; format: cell-based
Procedure: Fermentation trials were conducted with Clostridium autoethanogenum with Biotin (B7) and Thiamine (B1) feeds held at lower base levels with increasing Pantothenate (B5) Feeds.

Row | SMILES | SEP (specific ethanol productivity) (Clostridium ljungdahlii; Experiment 3, feeds (μg/g cells produced): pantothenate 19.33, biotin 17.76, thiamine 13.36) | SEP (specific ethanol productivity) (Clostridium ljungdahlii; Experiment 3, feeds (μg/g cells produced): pantothenate 37.91, biotin 17.42, thiamine 13.10) | SEP (specific ethanol productivity) (Clostridium ljungdahlii; Experiment 3, feeds (μg/g cells produced): pantothenate 55.49, biotin 17.00, thiamine 12.79) | SEP (specific ethanol productivity) (Clostridium ljungdahlii; Experiment 3, feeds (μg/g cells produced): pantothenate 72.34, biotin 16.62, thiamine 12.50) | SEP (specific ethanol productivity) (Clostridium ljungdahlii; Experiment 3, feeds (μg/g cells produced): pantothenate 108.13, biotin 19.87, thiamine 14.95) | SEP (specific ethanol productivity) (Clostridium ljungdahlii; Experiment 3, feeds (μg/g cells produced): pantothenate 125.67, biotin 20.55, thiamine 14.76) | specific ethanol productivity increase (Clostridium ljungdahlii; Experiment 3, vitamin B5 feed from about 20 to about 108 ug/g of cells produced, vitamin B1 and B7 feeds under 20 ug/g) | SEP (specific ethanol productivity) ([1]; feeds (μg/g cells produced): pantothenate 48.47, biotin 29.54, thiamine 23.10, cell retention time 13.45 hrs) | SEP (specific ethanol productivity) ([1]; feeds (μg/g cells produced): pantothenate 58.08, biotin 26.65, thiamine 20.84, cell retention time 13.27 hrs) | SEP (specific ethanol productivity) ([1]; feeds (μg/g cells produced): pantothenate 62.90, biotin 23.04, thiamine 18.01, cell retention time 12.44 hrs) | SEP (specific ethanol productivity) ([1]; feeds (μg/g cells produced): pantothenate 68.78, biotin 25.19, thiamine 19.70, cell retention time 11.36 hrs) | SEP (specific ethanol productivity) ([1]; feeds (μg/g cells produced): pantothenate 70.67, biotin 21.62, thiamine 16.91, cell retention time 11.22 hrs) | SEP (specific ethanol productivity) ([1]; feeds (μg/g cells produced): pantothenate 81.90, biotin 18.79, thiamine 14.69, cell retention time 9.81 hrs) | specific ethanol productivity increase ([1]; vitamin B5 feed from about 48 to about 82 ug/g of cells produced, B1 and B7 under 30 then under 20 ug/g, cell retention time from about 13.5 to 9.8 hours) | effect of increasing feed rate on specific ethanol productivity (Clostridium ljungdahlii)
1 | CC(C)(CO)[C@@H](O)C(=O)NCCC(=O)O [Pantothenate, pantothenate] | 7.95 g/day/g cells | 8.64 g/day/g cells | 10.03 g/day/g cells | 10.33 g/day/g cells | 11.25 g/day/g cells | 11.15 g/day/g cells | about 42% | 8.08 g/day/g cells | 8.24 g/day/g cells | 8.51 g/day/g cells | 9.39 g/day/g cells | 9.70 g/day/g cells | 9.98 g/day/g cells | about 24% | 
2 | O=C(O)CCCC[C@@H]1SC[C@@H]2NC(=O)N[C@@H]21 [Biotin, biotin] |  |  |  |  |  |  |  |  |  |  |  |  |  |  | did not increase specific ethanol productivity
3 | Cc1ncc(C[n+]2csc(CCO)c2C)c(N)n1 [Thiamine, thiamine] |  |  |  |  |  |  |  |  |  |  |  |  |  |  | did not increase specific ethanol productivity
